Patent publication USRE39708E1, “Estrogen receptor modulators” (Chiron Corporation, priority 1998, dated 2007)

System: MCF-7 cells
Assay: MCF-7 cell proliferation assay (BrdU incorporation)
Assay type: cell-based
Settings: MCF-7 proliferation, 24 hours, in the absence of estradiol or in the presence of 1 nM estradiol
Procedure: MCF-7 cells are a common line of breast cancer cells used to determine in vitro estrogen receptor agonist/antagonist activity (MacGregor and Jordan 1998). The effect of a test compound on the proliferation of MCF-7 cells, as measured by the incorporation of 5-bromo-2′-deoxyuridine (“BrdU”) in a chemiluminescent assay format, can be used to determine the relative agonist/antagonist activity of the test compound. MCF-7 cells (ATCC HTB-22) are mainatined in log-phase culture. The cells are plated and incubated in phenol-free medium to avoid external sources of iS estrogenic stimulus (MacGregor and Jordan 1998). The test compound is added at varying concentrations to determine an IC50, for the compound. […]
This assay determines the estrogen agonist/antagonist activity of a test compound by the effect of the test compound on the proliferation of MCF-7 cells as measured by the incorporation of 5-bromo-2′-deoxyuridine (“BrdU”) in a chemiluminescent assay format. […]
The cells were cultured in the presence of test compounds for 24 hours at 37° C. and under a 5% CO2 atmosphere Cell proliferation was detected by measuring the level of BrdU incorporation into DNA. […] The plates were shaken for ten minutes at room temperature, and the resulting chemiluminescent signals were counted using a TRILUX scintillation counter.

SMILES | concentration at which activity was demonstrated
CCc1c(-c2ccc(O)cc2)nn(C2CCC2)c1-c1ccc(O)cc1 [4-[1-cyclobutyl-4-ethyl-5-(4-hydroxyphenyl)pyrazol-3-yl]phenol] | less than one hundred
CCc1c(-c2ccc(O)cc2)nn(-c2ccccc2C(F)(F)F)c1-c1ccc(O)cc1 [4-{4-ethyl-5-(4-hydroxyphenyl)-1-[2-(trifluoromethyl)phenyl]pyrazol-3-yl}phenol] | less than one hundred
